Assays:
[1] = molecular target: T1, Capsid scaffolding protein (Human herpesvirus 2 (strain HG52) (HHV-2) (Human herpes simplex virus2), UniProt P89449); experiment: Inhibitory activity against herpes simplex virus protease (HSV-2); format: functional, Human alphaherpesvirus 2
T1 sequence (P89449 whole entry): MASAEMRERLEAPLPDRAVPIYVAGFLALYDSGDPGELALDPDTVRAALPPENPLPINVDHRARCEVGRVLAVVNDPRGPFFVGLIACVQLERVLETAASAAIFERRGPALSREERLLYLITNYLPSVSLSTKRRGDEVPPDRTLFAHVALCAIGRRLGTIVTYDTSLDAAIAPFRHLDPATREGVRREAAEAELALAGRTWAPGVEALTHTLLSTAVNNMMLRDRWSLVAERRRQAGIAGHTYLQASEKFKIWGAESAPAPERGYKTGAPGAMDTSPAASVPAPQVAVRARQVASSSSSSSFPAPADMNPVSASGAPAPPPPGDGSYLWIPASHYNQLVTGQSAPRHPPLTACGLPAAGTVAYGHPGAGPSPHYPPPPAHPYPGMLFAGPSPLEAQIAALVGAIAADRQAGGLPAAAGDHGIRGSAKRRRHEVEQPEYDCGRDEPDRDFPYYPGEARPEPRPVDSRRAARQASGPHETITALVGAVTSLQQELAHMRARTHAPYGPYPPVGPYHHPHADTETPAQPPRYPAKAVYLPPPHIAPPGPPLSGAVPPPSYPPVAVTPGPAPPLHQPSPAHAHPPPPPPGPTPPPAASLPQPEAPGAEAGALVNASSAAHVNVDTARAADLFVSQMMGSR

[2] = molecular target: T2, Capsid scaffolding protein (Human cytomegalovirus (strain AD169) (HHV-5) (Human herpesvirus 5), UniProt P16753); experiment: Inhibitory activity against cytomegalovirus protease (CMV); format: functional
T2 sequence (P16753 whole entry): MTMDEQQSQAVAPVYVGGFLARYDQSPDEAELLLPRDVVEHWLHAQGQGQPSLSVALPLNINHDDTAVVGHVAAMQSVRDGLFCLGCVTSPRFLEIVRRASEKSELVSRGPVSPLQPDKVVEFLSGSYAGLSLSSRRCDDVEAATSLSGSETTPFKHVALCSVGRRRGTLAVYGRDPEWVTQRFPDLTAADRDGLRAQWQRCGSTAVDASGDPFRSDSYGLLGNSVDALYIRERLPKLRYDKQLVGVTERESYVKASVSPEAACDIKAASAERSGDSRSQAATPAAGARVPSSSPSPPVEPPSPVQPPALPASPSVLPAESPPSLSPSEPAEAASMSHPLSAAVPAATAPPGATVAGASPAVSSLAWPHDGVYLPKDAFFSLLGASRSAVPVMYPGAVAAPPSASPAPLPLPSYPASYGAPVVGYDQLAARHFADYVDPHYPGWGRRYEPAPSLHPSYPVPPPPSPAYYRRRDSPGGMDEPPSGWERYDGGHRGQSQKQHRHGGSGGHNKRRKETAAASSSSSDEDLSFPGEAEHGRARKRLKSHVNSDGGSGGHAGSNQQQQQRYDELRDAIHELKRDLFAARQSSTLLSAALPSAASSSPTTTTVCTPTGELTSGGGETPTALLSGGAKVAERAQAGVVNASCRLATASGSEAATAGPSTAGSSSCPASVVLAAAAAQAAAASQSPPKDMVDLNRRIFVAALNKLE

MRC5 = experiment: Compound was tested for cytotoxicity in MRC-5 cells using XTT assay; format: functional; details: Homo sapiens, read-out: TC50 (the source's name)

Row | SMILES | IC50 [1] | IC50 [2] | CC50 (MRC5)
1 | Cc1csc2nc([C@H](C)NC(=O)/C=C/C(=O)Nc3ccccc3)oc(=O)c12 | 2.6 µM | 2.3 µM | 
2 | Cc1csc2nc([C@H](C)NC(=O)/C=C/C(=O)c3cccc([N+](=O)[O-])c3)oc(=O)c12 | 3 µM | 0.031 µM | 
3 | Cc1csc2nc([C@H](C)NC(=O)/C=C/C(=O)c3cccs3)oc(=O)c12 | 4.6 µM | 0.029 µM | 2 µM
4 | COc1cccc(C(=O)/C=C/C(=O)N[C@@H](C)c2nc3scc(C)c3c(=O)o2)c1 | 0.68 µM | 0.029 µM | 
5 | CC(=O)/C=C/C(=O)N[C@@H](C)c1nc2scc(C)c2c(=O)o1 | 0.79 µM | 0.37 µM | 11 µM
6 | CCOc1ccc(C(=O)/C=C/C(=O)N[C@@H](C)c2nc3scc(C)c3c(=O)o2)cc1 | 16 µM | 0.26 µM | 
7 | Cc1csc2nc([C@H](C)NC(=O)/C=C/C(=O)c3ccc(Cl)cc3)oc(=O)c12 | 15 µM | 0.06 µM | 
8 | Cc1csc2nc([C@H](C)NC(=O)/C=C/C(=O)c3ccccc3)oc(=O)c12 | 2.7 µM | 0.03 µM | 14 µM
9 | Cc1csc2nc([C@H](C)NC(=O)CCC(=O)c3ccccc3)oc(=O)c12 | 12 µM | 21 µM | 
10 | Cc1csc2nc([C@H](C)NC(=O)CCC(=O)c3cccs3)oc(=O)c12 | 4.7 µM | 19 µM | 
11 | Cc1csc2nc([C@H](C)NC(=O)/C=C/C(=O)c3ccccc3[N+](=O)[O-])oc(=O)c12 | 2.2 µM | 0.014 µM | 
12 | Cc1csc2nc([C@H](C)NC(=O)/C=C/C(=O)c3cccc(C#N)c3)oc(=O)c12 | 2 µM | 0.041 µM | 

— ChEMBL document CHEMBL1132681, “Inhibition of human cytomegalovirus protease by enedione derivatives of thieno[2,3-d]oxazinones through a novel dual acylation/alkylation mechanism” (Bioorg Med Chem Lett, 1999)
